One data set relates to SW480 cells. The experiment in a line: LPS-stimulated migration of SW480 cells. The format is cell-based, human. As to conditions: LPS 1.0 μg/ml; SPA4 1, 10 and 50 μM; from 24 hours till 72 hours. The protocol:
Cell migration: SW480 cells were plated in 30 mm tissue-culture-treated dishes at a density of 1.0×10^6 cells per plate. At 80-90% confluence, a “reference line” was drawn at the bottom of the plate. The cells were scratched off from one side of the reference line using a rubber policeman. A picture was taken at 0 t that helped in marking the “start line”. Cells were then washed with complete medium and incubated with LPS (1.0 μg/ml) and/or SPA4 peptide (1, 10 and 50 μM). Photomicrographs of cells migrated across the “start line” were taken in different fields after each treatment at 24, 48, and 72 hours (±2 hours) following traceable inscriptions made under the plate at three different points, with a Canon digital camera. On 24, 48 and 72 hour images, a second line was drawn along the edge of cells to represent the migration of cells. Cell migration was calculated by measuring the distance cells migrated from the “start line”. Only the continuous migration of cells was considered for measurement. The islets of cells were disregarded. The cell migration was calculated using the following formula: (distance between “start line” at 0 h—“reference line”)-(distance between “72 hours line”—“reference line”).

The next data set deals with IL-1β and IL-6. Kind of data set: Expression of IL-1β and IL-6 in SW480 cell lysates by immunoblotting. The format is cell-based, human. How it is done: Expression of IL-1β and IL-6: Two treatment models (post- and pre-LPS treatment) were utilized for assessing the effects of SPA4 peptide on LPS-induced cytokines: IL-1β and IL-6. Post-LPS treatment models (short-term and long-term) are described above. In pre-LPS treatment model, the SW480 cells were pretreated with SPA4 peptide (10 μM) for 2 hours, followed by LPS-challenge (1.0 μg/ml) for another 4 hours. The cell-lysates were prepared either in commercially available cell-culture lysis reagent (Promega, WI) or directly into SDS-PAGE sample buffer containing 50 mM dithiothreitol (Cell Signalling Technology, MA). Ten μg of cell-lysate proteins were separated on 4-20% Novex Tris-glycine gradient SDS-PAGE gel (Invitrogen, CA) or 10% separating-5% stacking acrylamide gel. The expression levels of cytokines were measured by immunoblotting as described above using 1:1000 diluted antibodies against IL-1β and IL-6. Both antibodies were purchased from Santacruz Biotech, CA.

Data set [1] deals with dendritic (JAWS II) and intestinal epithelial cells (SW480). Kind of data set: Cell viability during the 5 hour TLR4 expression experiment. The format is cell-based. As to conditions: within the 5 hours of the experiment. The protocol:
SPA4 peptide (SEQ ID NO:3) inhibits the LPS-induced TLR4 expression in dendritic cells and SW480 intestinal (colonic) epithelial cells. […] Both of these cells constitutively express the TLR4 gene; the protein expression is low in dendritic cells under basal conditions. […] First, it was determined if the SPA4 peptide inhibits LPS-induced expression of TLR4 in these cells. […] After a total of 5 hours, TLR4 expression was studied by confocal microscopy.

A short description of data set [2]: Solubility of purified baboon lung SP-A. The format is physicochemical.
The next data set has as its target T1, recombinant MD2 protein (Homo sapiens, UniProt Q9Y6Y9).
T1 construct: human MD-2 (mature region, Glu 17-Asn 160 amino acids); 10x histidine tag (C); signal peptide from human CD33 (N); purchased R&D Systems, MN; host or cells: mouse myeloma cell line NS0
T1 sequence (Q9Y6Y9 17-160): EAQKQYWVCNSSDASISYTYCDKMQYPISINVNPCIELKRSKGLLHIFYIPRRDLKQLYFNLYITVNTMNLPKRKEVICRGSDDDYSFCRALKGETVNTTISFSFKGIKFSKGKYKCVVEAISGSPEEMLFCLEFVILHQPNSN
The experiment in a line: Microwell-based binding to immobilized recombinant MD2 protein. As to conditions: 0.25 μg MD2 per well. An excerpt:
Interaction between purified baboon lung SP-A, SP-A-peptides and TLR4-MD2 proteins using a microwell-based method: The binding between the purified baboon lung SP-A, SP-A-peptides and recombinant TLR4-MD2 and MD2 proteins was studied in vitro using a microwell-based method (Awasthi et al., 2004). The soluble, recombinant TLR4-MD2 protein (R&D Systems, MN) consisted of a mixture of recombinant human-TLR4 and MD2 proteins. The recombinant extracellular domain of human TLR4 protein (Glu 24-Lys 631 amino acids), was joined with a DNA sequence encoding the signal peptide from human CD33 and a 10× histidine tag at the C-terminus (Accession # O00206). For MD2 protein, a DNA sequence encoding the signal peptide from human CD33 was joined with the mature region of human MD-2 (mature region, Glu 17-Asn 160 amino acids) and a 10× histidine tag at the C-terminus (Accession # Q9Y6Y9). […]
For the binding assay, microwell ultra-high-protein binding Immunolon 4HBX strips (Thermo Scientific, MA) were coated with soluble recombinant-TLR4-MD2 protein or MD2 protein (R&D Systems, 250 ng per well, diluted in 0.1 M NaHCO3, pH 9.6) overnight at room temperature. […] The immune-complex was detected using 3,3′,5,5′-tetramethylbenzidine (TMB) substrate system (Sigma-Aldrich, MO). The reaction was stopped with 2 N H2SO4 and read at 405 and/or 450 nm spectrophotometrically (Molecular Devices, CA).

Where no end group is shown, it is not given here.

For the substance “GDFRYSDGTPVNYTNWYRGE [SPA4, GDFRYSDGT PVNYTNWYRGE]”, the “LPS-induced migration of SW480 cells” value with SW480 cells was “inhibited”. In addition, the “expression of IL-6 precursors or active form, short-term treatment model” value with IL-1β and IL-6 is on record as “not significantly affected”. For the same substance, the “expression of low molecular weight precursors and active IL-1β, post-LPS treatment models” value in the data set on IL-1β and IL-6 (5 hours and 9 hours, dose-dependent) was “significantly decreased”. For the same substance, the “IL-6 expression, prolonged treatment” value in the data set on IL-1β and IL-6 (6 hours or 9 hours in pre- and post-LPS-treatment models) is “significantly inhibited”. For the same substance, the “expression of IL-1β precursor and active forms, pre-LPS treatment model” value in the data set with IL-1β and IL-6 (SPA4 10 μM 2 hours then LPS 1.0 μg/ml 4 hours) was “significant decrease”. Also, the “expression of IL-1β precursor form 1” value in the data set with IL-1β and IL-6 (compared with LPS-treated cells) is listed as “increased or unchanged”. Also, the viability of cells entry in data set [1] is “does not affect the viability of cells”.

For “SP-A: native surfactant protein-A purified from bronchioalveolar lavage fluid of a normal healthy adult baboon (MWLCPLALTLTLMAASGAACEVKDVCVGSPGIPGTPGSHGLPGRDGRDGVKGDPGPP; listed as Papio cynocephalus)”, the solubility in data set [2] was found to be 51%. The “binding to surface-bound MD2 protein” value with recombinant MD2 protein is recorded as “found to bind”.

For the origin of these results see patent publication US8623832B2, “Peptide compositions that bind TLR-4” (The Board of Regents of the University of Oklahoma, priority 2011, dated 2014).
